Measured values as given in PMC3376194 (Pharmacogenetics and Genomics, 2012).
Values joined by “and” are separate entries in the source; they are usually repeats but may differ in a detail not shown here. Equal values may be shown once. Read-outs that look alike come from different tables or passages of the source. Each block holds one compound with its values, some of them ahead of it.

Legend:
PGHS-1 [1] = details: cited from earlier work
wildtype human PGHS-1 [2] = biological target: T1, wildtype human PGHS-1 (Homo sapiens, UniProt P23219); experiment: Reversible COX inhibition by NS-398, substrate dependence of COX activity; type: biochemical; details: double reciprocal plot
T1 sequence (P23219 24-599): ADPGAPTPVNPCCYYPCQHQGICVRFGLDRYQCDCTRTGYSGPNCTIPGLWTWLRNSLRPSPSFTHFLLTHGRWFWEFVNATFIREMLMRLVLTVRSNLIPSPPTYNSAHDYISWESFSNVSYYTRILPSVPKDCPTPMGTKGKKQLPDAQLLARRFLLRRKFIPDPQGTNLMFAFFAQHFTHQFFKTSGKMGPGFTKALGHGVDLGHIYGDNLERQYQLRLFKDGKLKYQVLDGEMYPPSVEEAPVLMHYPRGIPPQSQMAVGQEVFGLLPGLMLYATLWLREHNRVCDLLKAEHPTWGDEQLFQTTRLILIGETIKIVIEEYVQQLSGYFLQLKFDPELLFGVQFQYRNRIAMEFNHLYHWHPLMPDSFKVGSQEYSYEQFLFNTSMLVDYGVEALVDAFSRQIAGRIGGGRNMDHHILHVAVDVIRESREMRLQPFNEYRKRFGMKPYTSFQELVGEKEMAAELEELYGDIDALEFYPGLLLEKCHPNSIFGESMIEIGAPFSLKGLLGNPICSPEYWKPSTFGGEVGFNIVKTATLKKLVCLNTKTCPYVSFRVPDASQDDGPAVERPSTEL

PGHS-1 L237M variant [3] = biological target: T2, PGHS-1 L237M variant (Homo sapiens, UniProt P23219, L237M); experiment: COX kinetic parameters, oxygen uptake vs arachidonate; type: biochemical; details: read-out: COX Km (μM arachidonate), 0.025% Tween 20, 37 °C
T2 sequence (P23219 24-599 L237M): as the sequence (P23219 24-599) above, with L214M counted along it

PGHS-1 V481I variant [4] = biological target: T3, PGHS-1 V481I variant (Homo sapiens, UniProt P23219, V481I); experiment: as above; type: biochemical; details: read-out: COX Km (μM arachidonate), 0.025% Tween 20, 37 °C
T3 sequence (P23219 24-599 V481I): as the sequence (P23219 24-599) above, with V458I counted along it

wildtype human PGHS-1 [5] = biological target: T1, wildtype human PGHS-1; experiment: as above; type: biochemical; details: read-out: COX Km (μM arachidonate), WT, 37 °C, 100 μM HOOH
[6] = biological target: T4, R108Q variant of human PGHS-1 (Homo sapiens, UniProt P23219, R108Q); experiment: as above; type: biochemical
T4 sequence (P23219 24-599 R108Q): as the sequence (P23219 24-599) above, with R85Q counted along it

PGHS-1 R53H variant = PGHS-1 R53H variant (Homo sapiens, UniProt P23219, R53H); experiment: Timed preincubation with aspirin, decay of surviving COX activity; type: biochemical; details: 37 °C, preincubation with 0.4-5.3 mM aspirin, average ± SD
PGHS-1 R53H variant, sequence (P23219 24-599 R53H): as the sequence (P23219 24-599) above, with R30H counted along it

[7] = hydrolysis in blood; cited from earlier work
PGHS-1 L237M variant [8] = biological target: T2, PGHS-1 L237M variant; experiment: Timed preincubation with aspirin, decay of surviving COX activity; type: biochemical; details: 37 °C, preincubation with 0.4-5.3 mM aspirin, average ± SD
ovine PGHS-1 = details: cited from earlier work
[9] = ingestion of 500-650 mg aspirin; cited from earlier work
[10] = biological target: T4, R108Q variant of human PGHS-1; experiment: Timed preincubation with aspirin, decay of surviving COX activity; type: biochemical
PGHS-1 [11] = details: in blood ex vivo; cited from earlier work
[12] = biological target: T4, R108Q variant of human PGHS-1; experiment: Analysis of Ki and k2 values for aspirin; type: biochemical; details: 20 °C, aspirin potassium salt
wildtype human PGHS-1 [13] = biological target: T1, wildtype human PGHS-1; experiment: Timed preincubation with aspirin, decay of surviving COX activity; type: biochemical; details: WT; 37 °C; preincubation with 0.4-5.3 mM aspirin; average ± SD
PGHS-1 V481I variant [14] = biological target: T3, PGHS-1 V481I variant; experiment: as above; type: biochemical; details: 37 °C, preincubation with 0.4-5.3 mM aspirin, average ± SD
COX-1 = details: cited from earlier work

Type of COX inhibition (wildtype human PGHS-1 [2]): reversible, competitive inhibitor
Compound: CS(=O)(=O)Nc1ccc([N+](=O)[O-])cc1OC1CCCCC1 [NS-398]
Antagonism of PGHS-1 inactivation by aspirin (PGHS-1 [1]): potent antagonist | Effect on COX catalysis (PGHS-1 [1]; even at low arachidonate levels): lack effect on COX catalysis

Km (PGHS-1 L237M variant [3]): 1.8 ± 0.3 µM | Km (PGHS-1 V481I variant [4]): 1.8 ± 0.2 µM | Km (wildtype human PGHS-1 [5]; 0.025% Tween 20): 1.5 ± 0.4 µM | Km (wildtype human PGHS-1 [5]; 0.165% Tween 20): 19.8 ± 3.7 µM | Elevated arachidonate Km compared to wildtype [6]: 1.9 fold | Km value above the wildtype value ([6]; 0.165% Tween 20): 50% | Km ([6]; read-out: COX Km (μM arachidonate), 0.025% Tween 20, 37 °C): 2.8 ± 0.4 µM | Km ([6]; read-out: COX Km (μM arachidonate), 0.165% Tween 20, 37 °C): 29.7 ± 3.3 µM | Increase in Km value vs wildtype ([6]; standard conditions): 86%
Compound: CCCCC/C=C\C/C=C\C/C=C\C/C=C\CCCC(=O)O [arachidonate]

Decrease in k2 (rate constant for acetyl group transfer) vs wildtype [12]: 30% | Increase in Ki for aspirin vs wildtype [12]: 70% | k2/Ki as percent of that for wildtype [12]: 42%
Compound: CC(=O)Oc1ccccc1C(=O)O [aspirin, acetylsalicylic acid]
Aspirin reactivity (relative), k2'/[aspirin] normalized to wildtype value (PGHS-1 R53H variant): 0.91 ± 0.07 (n = 9) p = 0.042 | t1/2 of aspirin in blood [7]: ~ 15 min | Aspirin reactivity (relative), k2'/[aspirin] normalized to wildtype value (PGHS-1 L237M variant [8]): 0.86 ± 0.05 (n = 9) p = 0.001 | Aspirin reactivity (ovine PGHS-1; ovine PGHS-1, 30°C): 0.3 mM⁻¹ min⁻¹ | Ki (ovine PGHS-1; read-out: Ki for aspirin, PGHS-1 (ovine)): ~20 mM and 14 to 20 mM | Peak plasma aspirin level [9]: 30 to 80 µM | Time of plasma aspirin peak [9]: ~ 30 min | Lower aspirin reactivity compared to wildtype ([10]; R108Q vs wildtype): 60% | k2'/aspirin (≈ k2/Ki) as percent of the wildtype value ([10]; R108Q, 37 °C): 40% | Aspirin reactivity (relative), k2'/[aspirin] normalized to wildtype value ([10]; R108Q, 37 °C, preincubation with 0.4-5.3 mM aspirin, average ± SD): 0.40 ± 0.05 (n = 7) p = 0.0001 | IC50 (PGHS-1 [11]): 0.002 mM | Aspirin reactivity (relative), k2'/[aspirin] normalized to wildtype value (wildtype human PGHS-1 [13]): 1.00 ± 0.10 (n = 9) | Aspirin reactivity (relative), k2'/[aspirin] normalized to wildtype value (PGHS-1 V481I variant [14]): 0.82 ± 0.10 (n = 9) p = 0.001

Compound: O=C(O)c1ccccc1O [salicylic acid]
COX-1 inhibition (COX-1): negligible COX-1 inhibitor
